Laboratory results reported in patent EP0858509B1, “DNA SEQUENCES ENCODING CMH-1, A CYSTEINE PROTEASE INVOLVED IN APOPTOSIS” (VERTEX PHARMACEUTICALS INCORPORATED, priority 1995, dated 1997).

Biological target: T1, CMH-1 (Homo sapiens, UniProt P55210)
T1 construct: we expressed an N-terminal (His)6-tagged CMH-1(Ala24-Gln303) in E. coli; made in house; host or cells: E. coli BL21(DE3), pET-15b
T1 sequence (P55210 24-303): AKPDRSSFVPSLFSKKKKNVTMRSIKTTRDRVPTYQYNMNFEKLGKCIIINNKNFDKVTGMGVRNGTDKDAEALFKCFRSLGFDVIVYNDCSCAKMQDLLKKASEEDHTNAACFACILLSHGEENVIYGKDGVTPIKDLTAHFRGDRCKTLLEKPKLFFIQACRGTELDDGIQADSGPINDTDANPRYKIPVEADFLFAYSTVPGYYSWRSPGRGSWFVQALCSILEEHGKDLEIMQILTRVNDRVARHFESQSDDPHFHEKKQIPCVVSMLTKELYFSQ
T1 sequence (P55210 199-303): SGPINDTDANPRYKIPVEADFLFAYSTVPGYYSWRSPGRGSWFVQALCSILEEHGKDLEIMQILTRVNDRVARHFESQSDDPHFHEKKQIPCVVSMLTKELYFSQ
Test: Inhibition of in vitro cleavage of 35S-labelled PARP by CMH-1 (SDS-PAGE and fluorography)
Assay type: biochemical
Details: 35S-labelled PARP as substrate, Fig. 4, panel B
Description: In order to determine the activity of purified CMH-1, we determined whether the protein could cleave ^35[S]-labeled pro-IL-1b and PARP and compared its cleavage activity to purified ICE. We prepared ^35[S]-labeled PARP and IL-1b precursor (pro-IL-1b) by in vitro transcription and translation. Cleavage experiments were carried out as described previously [Y. Gu et al., J. Biol. Chem. (1995)]. Cleavage products were analyzed by SDS-PAGE and fluorography as described in that reference.

Molecule | inhibition of the cleavage activity of CMH-1
CCN1C(=O)C=CC1=O [N-ethylmaleimide] | inhibited
NC(=O)CI [iodoacetamide] | inhibited
YVAD-CHO | not
